Test results published in patent US10440955B2, “Methods comprising a biocidal polyamine” (Curza Global, LLC, priority 2013, dated 2019).
“And” between values parts separate entries of the source, which are not always exact repeats. Equal entries are not always repeated. Structures can show the parent of a compound that is named as a salt.

What was measured:
[1] = test system: various bacterial cell cultures; test: Antimicrobial activity of polyamines in hydrogel on agar lawns; format: cell-based; conditions: 0.5% CZ compound in 0.5% sodium hyaluronate gel, 500 uL on TSA lawn, 37 C for 24 hours
Procedure: A 0.5 McFarland standard of each bacteria was made, then individual lawns of bacteria spread onto the surface of tryptic soy agar (TSA). 500 uL of the suspended gel were placed on the center of each lawn. Plates were incubated at 37 C for 24 hours, then imaged. Images of the resulting gels are shown in FIGS. 30A to 30I show the effects of the polyamines CZ-86, CZ-100, and CZ-110 on various bacterial cell cultures.
The hydrogel that was used for those images is a LifeCore gel with 1% sodium hyaluronate (1% Sodium Hyaluronate Solution Part #82). The CZ compound was suspended in water at 1% (w/w) concentration and combined with the LifeCore gel 1:1 for a final product that contained 0.5% sodium hyaluronate and 0.5% CZ compound.

[2] = test system: human blood; test: Hemolysis test with diluted human blood (ISO 10993-4); format: cell-based
Excerpt: Procedure: The PBS used in testing was calcium and magnesium free. The method has been validated using human blood from one donor. This is in compliance with ISO 10993-4 which states due to differences in blood activity, human blood should be used where possible. Furthermore, pooling unmatched human blood from multiple donors may cause red blood cell agglutination which in turn could cause hemolysis; this supports the use of a single donor.
The blood was drawn using vacutainers containing 0.1 M sodium citrate at a ratio of 9:1 (3.2% anticoagulant to blood). The blood in this test was used within four hours of blood draw. The collected blood was refrigerated until testing was performed.
A hemoglobin standard was diluted with Drabkin's reagent to give solutions at concentrations of 0.80, 0.60, 0.40, 0.30, 0.20, 0.10, 0.02, and 0.01 mg/ml. These solutions were allowed to stand at room temperature for a minimum of five minutes. The absorbance was read on a spectrophotometer at 540 nanometers (nm). A standard curve was determined with the absorbance values and the standard concentrations of hemoglobin.
Human blood was centrifuged at 700-800×g for 15 minutes. A 1 mL aliquot of the plasma was added into 1 mL of Drabkin's reagent, and placed at room temperature for a minimum of 15 minutes. The absorbance was read on a spectrophotometer at 540 nm. The hemoglobin concentration was determined from the standard curve and then multiplied by a factor of 2 to obtain the total plasma free hemoglobin. The plasma free hemoglobin was less than 2 mg/mL (actual value 0.221 mg/mL). A 20 μL aliquot of blood was added to 5 mL of Drabkin's reagent in duplicate and allowed to stand at room temperature for a minimum of 15 minutes. The absorbance was read on a spectrophotometer at 540 nm then multiplied by 251 to account for the dilution.
Based on the plasma hemoglobin and the blood absorbance against Drabkin's reagent, the blood was diluted out to 10±1 mg/mL with PBS. To verify the blood dilution, a 300 μL aliquot of this blood was added to 4.5 mL of Drabkin's reagent in triplicate and allowed to stand at room temperature for a minimum of 15 minutes. The absorbance was read on a spectrophotometer at 540 nm then multiplied by 16 to account for the dilution.
Glass test tubes were labeled appropriately. Both samples were prepared the same way. The samples were allowed to thaw prior to testing. To each test tube, 7 mL of the test article and 1 mL of the diluted blood were added. The controls consisted of the appropriate amount of control material, 7 mL of PBS and 1 mL of blood. Three tubes were prepared for each test article and control. The tubes were incubated at 37±2° C. for 3 hours±5 minutes. Tubes were gently inverted twice at 30 minute intervals throughout the incubation period. A non-hemolytic negative control, a hemolytic positive control and a PBS blank were included.
After incubation, test articles were centrifuged at 700-800×g for 15 minutes and 1 mL of the supernatant fluid was combined with 1 mL of Drabkin's reagent and allowed to stand at room temperature for a minimum of 15 minutes. Following the centrifugation phase, the supernatant of both test articles visually appeared clear and were particulate free. The PBS blank and the negative control supernatant visually appeared clear and were particulate free. The supernatant of the positive control visually appeared red and were particulate free. The test articles and controls were read at 540 nm in a spectrophotometer.
The hemolytic index (percent hemolysis) was interpreted using the following equation:
[formula] Where: Hemoglobin Released (mg/mL)=(Optical Density×X Coefficient+Constant)×16 Hemoglobin Present (mg/ml)=Diluted Blood 10±1 mg/mL
The corrected hemolytic index was calculated by subtracting the hemolytic index of the PBS blank solution from the hemolytic index of the test article and controls. […]

[3] = test system: MRSA biofilms; test: EBEC, biofilms on PEEK membranes, eradication of all detectable bacteria (Example 2); format: cell-based, Staphylococcus aureus; conditions: ~2×10^11 cells per PEEK membrane, eradicate all detectable bacteria
Procedure: The fourth test that was performed was the effective biofilm eradication concentration (EBEC). To determine the EBEC, biofilms of MRSA and P. aeruginosa ATCC 27853 were grown on the surface of PEEK membranes using a previously established protocol. Briefly, 500 mL of brain heart infusion (BHI) broth were inoculated with 10^5 cells/mL of MRSA or P. aeruginosa. BHI broth was placed into a membrane biofilm reactor and placed on a hot plate set at 34° C. for 24 hours with a stir bar rotating at 130 rpm. Following the initial 24-hour growth period, a 10% BHI broth solution was flowed through the reactor at a rate of 6.944 mL/min for another 24 hours. After 48 hours of growth, each PEEK membrane had biofilm growth on it. In this experiment, there were ˜2×10^11 cells of MRSA per PEEK membrane and ˜2×10^10 cells of P. aeruginosa per PEEK membrane. The EBEC was defined as the concentration of the compound that was required to eradicate all detectable amounts (100%) of bacteria within the biofilms.

[4] = test system: MRSA; test: MIC, microdilution CLSI M26-A (Example 2); format: cell-based; conditions: Staphylococcus aureus, 24 h, read-out: MIC (μg/mL/μM)
Procedure: The second test determined the minimum inhibitory concentration (MIC) of the compound against MRSA and P. aeruginosa ATCC 27853. […] This definition was consistent with the Clinical and Laboratory Standards Institute (CLSI). More specifically, the microdilution method as outlined in the M26-A CLSI guideline was used. All tests were performed with cation adjusted Mueller Hinton broth.

[5] = test system: biofilm of MRSA; test: Combination treatment: dispersal of a biofilm; format: cell-based, Staphylococcus aureus; conditions: […] mixed with chlorhexidine gluconate at […]; biofilm of 10^11 cells; within one hour

Q: Which results are given for `CC(C)CNCCCNCCCNCc1cc(CNCCCNCCCNCC(C)C)cc(-c2ccccc2)c1` [CZ-86, N^1,N^1′-([1,1′-biphenyl]-3,5-diylbis(methylene))bis(N^3-(3-(isobutylamino)propyl)propane-1,3-diamine), hydrochloride salt]?
A: zones of inhibition in bacterial lawns [1]: created zones of inhibition; Average Hemolytic Index (% Hemolysis) [2]: 0.76 % Hemolysis; Hemolytic Grade [2]: non-hemolytic; difference between the hemolytic indexes of test article and negative control [2]: 0.00%; Average Optical Density ([2]; 540 nm): 0.003; Optical Density ([2]; 540 nm, three tubes, 37 ± 2° C., 3 hours): 0.003; Corrected Hemolytic Index (% Hemolysis) ([2]; hemolytic index of the PBS blank subtracted): 0.00 % Hemolysis; Hemolytic Index ([2]; three tubes): 0.764

Q: For `CN[C@H](CC(C)C)C(=O)N[C@H]1C(=O)N[C@@H](CC(N)=O)C(=O)N[C@H]2C(=O)N[C@H]3C(=O)N[C@H](C(=O)N[C@H](C(=O)O)c4cc(O)cc(O)c4-c4cc3ccc4O)[C@H](O)c3ccc(c(Cl)c3)Oc3cc2cc(c3O[C@@H]2O[C@H](CO)[C@@H](O)[C@H](O)[C@H]2O[C@H]2C[C@](C)(N)[C@H](O)[C@H](C)O2)Oc2ccc(cc2Cl)[C@H]1O` [vancomycin, reference compound], which “EBEC (μg/mL/μM)” value [3] is on record?
A: The value was > 20,000 μg/mL and > 13,460 μM.

Q: And the MIC [4]?
A: The MIC was 10 µg/mL and 6.73 µM.

Q: How did the “dispersal of a biofilm of MRSA” value [5] turn out when `NCCCNCCCNCc1ccccc1` [CZ-7, benzylnorspermidine] was run?
A: Its value is “significant dispersal”.
